Laboratory results taken from patent US20090036472A1, “AZABICYCLO DERIVATIVES AS ANTI-INFLAMMATORY AGENTS” (priority 2005, published 2009).

biological target: activated p38 (Homo sapiens, UniProt Q16539); experiment: p38 inhibition assay: inhibition of phosphorylation of EGF receptor peptide; format: biochemical; conditions: compound behaviour in the assay
Description: p38 Inhibition Assays—Inhibition of Phosphorylation of EGF Receptor Peptide
This assay was carried out in the presence of 10 mM MgCl2, 25 mM β-glycerophosphate, 10% glycerol and 100 mM HEPES buffer at pH 7.6. For a typical IC50 determination, a stock solution was prepared containing all of the above components and activated p38 (5 nM). The stock solution was aliquoted into vials. A fixed volume of DMSO or inhibitor in DMSO (final concentration of DMSO in reaction was 5%) was introduced to each vial, mixed and incubated for 15 minutes at room temperature.
EGF receptor peptide, […], a phosphoryl acceptor in p38-catalysed kinase reaction (1), was added to each vial to a final concentration of 200 μM. The kinase reaction was initiated with ATP (100 μm) and the vials were incubated at 30C. After 30 minutes, the reactions were quenched with equal volume of 10% trifluoroacetic acid (TFA).
The phosphorylated peptide was quantified by HPLC analysis. Separation of the phosphorylated peptide from the unphosphorylated peptide was achieved on a reverse phase column (Deltapak, 5 μM, C18 100D, part no. 011795) with a binary gradient of water and acetonitrile, each containing 0.1% TFA. IC50 (concentration of inhibitor yielding 50% inhibition) was determined by plotting the % activity remaining against inhibitor concentration.

activated p38, sequence (Q16539 whole entry): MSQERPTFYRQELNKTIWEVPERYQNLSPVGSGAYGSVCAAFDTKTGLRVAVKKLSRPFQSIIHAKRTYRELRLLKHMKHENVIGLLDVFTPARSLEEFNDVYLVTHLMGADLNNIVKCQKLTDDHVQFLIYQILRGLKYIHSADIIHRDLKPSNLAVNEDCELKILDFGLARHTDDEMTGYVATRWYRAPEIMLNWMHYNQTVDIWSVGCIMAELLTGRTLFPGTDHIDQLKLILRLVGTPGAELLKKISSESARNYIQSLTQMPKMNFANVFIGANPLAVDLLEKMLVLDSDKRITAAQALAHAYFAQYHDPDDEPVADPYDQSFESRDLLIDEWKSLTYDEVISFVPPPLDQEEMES

observation in the p38 enzyme assay | SMILES
formed a precipitate | O=c1c(-c2ccccc2F)cc2cnc(NN3CC4CCCC4C3)nc2n1Cc1ccc(F)cc1 (stereo not drawn) [Compound No. 13, 6-(2-Fluorophenyl)-2-(3-azabicyclo[3.3.0]oct-3-yl-amino)-8-(4-fluorobenzyl)-pyrido[2,3-d]pyrimidin-7(8H)-one]

test system: TNF-α release from LPS-stimulated human peripheral blood mononuclear cells; experiment: Cell based assay for TNF-α release, LPS stimulation of human PBMNC's; conditions: PBMC, LPS 20 ng/ml, overnight, ELISA, collective range for the listed compounds, units given within the value (μM to nM), read-out: IC50 (TNF-α release; printed as IC50 for p38 inhibitory activity)
Description: Cell based Assay for TNF-α release
Method of Isolation of Human Peripheral Blood Mononuclear Cells:
Human whole blood was collected in vacutainer tubes containing EDTA as an anti coagulant. A blood sample (7 ml) was carefully layered over 5 ml PMN Cell Isolation Medium (Robbins Scientific) in a 15 ml round bottom centrifuge tubes. The sample was centrifuged at 450-500×g for 30-35 minutes in a swing-out rotor at room temperature. After centrifugation the top band of cells were removed and washed 3 times with PBS w/o calcium or magnesium. The cells were centrifuged at 400×g for 10 minutes at room temperature. The cells were resuspended in Macrophage Serum Free Medium (Gibco BRL) at concentration of 2 million cells/ml.
LPS Stimulation of Human PBMNC's:
PBM cells (0.1 ml; 2 million/ml) were co-incubated with 0.1 ml of compound (10-0.41 μM, final concentration) for 1 hour in flat bottom 96 well microtiter plate. Compounds were dissolved in DMSO initially and diluted in TCM for a final concentration of 0.1% DMSO. LPS (Cal biochem, 20 ng/ml, final concentration) was then added at volume of 0.010 ml. Cultures were incubated overnight at 37° C.). Supernatant were then removed and tested by ELISA for TNF-α release. Viability was analyzed using MTT. After 0.1 ml supernatant was collected, 0.1 ml of 0.25 mg/ml of MTT was added to remaining 0.1 ml of cells. The cells were incubated at 37° C. for 2-4 hours, then the O.D was measured at 490-650 nm.
The TNF-α levels released in the culture medium was quantitated by ELISA. Inhibitory potency was expressed as IC50.

SMILES | IC50
CCOCCn1c(=O)c(-c2ccccc2Cl)cc2cnc(NN3CC4CCCC4C3)nc21 (stereo not drawn) [Compound No. 25, 6-(2-Chlorophenyl)-2-(3-azabicyclo[3.3.0]oct-3-yl-amino)-8-(2-ethoxyethyl)pyrido[2,3-d]pyrimidin-7(8H)-one] | 0.14 to 3 µM
Cc1ccccc1-c1cc2cnc(NN3CC4CCCC4C3)nc2n(CC(=O)NC2CCC2)c1=O (stereo not drawn) [Compound No. 47, N-Cyclobutyl-2-[2-(3-azabicyclo[3.3.0]oct-3-yl-amino)-6-(2-methylphenyl)-7-oxopyrido[2,3-d]pyrimidin-8(7H)-yl]acetamide] | 0.14 to 3 µM
O=c1c(-c2ccccc2F)cc2cnc(NN3CC4CCCC4C3)nc2n1C1CCCC1 (stereo not drawn) [Compound No. 22, 6-(2-Fluorophenyl)-2-(3-azabicyclo[3.3.0]oct-3-yl-amino)-8-(cyclopentyl)pyrido[2,3-d]pyrimidin-7(8H)-one] | 0.14 to 3 µM
O=c1c(-c2ccccc2F)cc2cnc(NN3CC4CCCC4C3)nc2n1CC1CC1 (stereo not drawn) [Compound No. 23, 6-(2-Fluorophenyl)-2-(3-azabicyclo[3.3.0]oct-3-yl-amino)-8-(cyclopropylmethyl)-pyrido[2,3-d]pyrimidin-7(8H)-one] | 0.14 to 3 µM
O=c1c(Oc2ccccc2F)cc2cnc(NN3CC4CCCC4C3)nc2n1C1CC1 (stereo not drawn) [Compound No. 59, 6-(2-Fluorophenoxy)-2-(3-azabicyclo[3.3.0]oct-3-yl-amino)-8-cyclopropyl-pyrido[2,3-d]pyrimidin-7(8H)-one] | 0.14 to 3 µM
Cn1c(=O)c(-c2c(Cl)cccc2Cl)cc2cnc(NN3CC4CCCC4C3)nc21 (stereo not drawn) [Compound No. 68, 6-(2,6-Dichlorophenyl)-2-(3-azabicyclo[3.3.0]oct-3-yl-amino)-8-methylpyrido[2,3-d]pyrimidin-7(8H)-one] | 0.14 to 3 µM
O=c1c(-c2ccccc2Cl)cc2cnc(NN3CC4CCCC4C3)nc2n1C1CC1 (stereo not drawn) [Compound No. 52, 6-(2-Chlorophenyl)-2-(3-azabicyclo[3.3.0]oct-3-yl-amino)-8-cyclopropyl-pyrido[2,3-d]pyrimidin-7(8H)-one] | 0.14 to 3 µM
CCOC(=O)C(C)n1c(=O)c(-c2ccccc2F)cc2cnc(NN3CC4CCCC4C3)nc21 (stereo not drawn) [Compound No. 20, Ethyl 2-[6-(2-fluorophenyl)-2-(3-azabicyclo[3.3.0]oct-3-yl-amino)-7-oxopyrido[2,3-d]pyrimidin-8(7H)-yl]propanoate] | 0.14 to 3 µM
CCCCS(=O)(=O)NCCn1c(=O)c(-c2ccccc2C)cc2cnc(NN3CC4CCCC4C3)nc21 (stereo not drawn) [Compound No. 40, N-{2-[2-(3-azabicyclo[3.3.0]oct-3-yl-amino)-6-(2-methylphenyl)-7-oxopyrido[2,3-d]pyrimidin-8(7H)-yl]ethyl}butane-1-sulfonamide] | 0.14 to 3 µM

Further lines, results first:

IC50 | SMILES
0.14 to 3 µM | COCCn1c(=O)c(-c2ccccc2C)cc2cnc(NN3CC4CCCC4C3)nc21 (stereo not drawn) [Compound No. 50, 6-(2-Methylphenyl)-2-(3-azabicyclo[3.3.0]oct-3-yl-amino)-8-(2-methoxyethyl)-pyrido[2,3-d]pyrimidin-7(8H)-one]
0.14 to 3 µM | CCOCCn1c(=O)c(-c2ccccc2C)cc2cnc(NN3CC4CCCC4C3)nc21 (stereo not drawn) [Compound No. 51, 6-(2-Methylphenyl)-2-(3-azabicyclo[3.3.0]oct-3-yl-amino)-8-(2-ethoxyethyl)pyrido[2,3-d]pyrimidin-7(8H)-one]
0.14 to 3 µM | Cn1c(=O)c(-c2ccccc2Cl)cc2cnc(NN3CC4CCCC4C3)nc21 (stereo not drawn) [Compound No. 1, 6-(2-Chlorophenyl)-2-(3-azabicyclo[3.3.0]oct-3-yl-amino)-8-methylpyrido[2,3-d]pyrimidin-7(8H)-one]
0.14 to 3 µM | CCOC(=O)Cn1c(=O)c(-c2ccccc2C)cc2cnc(NN3CC4CCCC4C3)nc21 (stereo not drawn) [Compound No. 44, Ethyl[2-(3-azabicyclo[3.3.0]oct-3-yl-amino)-6-(2-methylphenyl)-7-oxopyrido[2,3-d]pyrimidin-8(7H)-yl]acetate]
0.14 to 3 µM | CCOC(=O)C(C)n1c(=O)c(-c2ccccc2C)cc2cnc(NN3CC4CCCC4C3)nc21 (stereo not drawn) [Compound No. 21, Ethyl 2-[6-(2-methylphenyl)-2-(3-azabicyclo [3.3.0]oct-3-yl-amino)-7-oxopyrido[2,3-d]pyrimidin-8(7H)-yl]propanoate]
0.14 to 3 µM | Cn1c(=O)c(-c2ccc(F)cc2Cl)cc2cnc(NN3CC4CCCC4C3)nc21 (stereo not drawn) [Compound No. 71, 6-(2-Chloro-4-fluorophenyl)-2-(3-azabicyclo [3.3.0]oct-3-yl-amino)-8-methylpyrido[2,3-d]pyrimidin-7(8H)-one]
0.14 to 3 µM | Cn1c(=O)c(-c2ccccc2[N+](=O)[O-])cc2cnc(NN3CC4CCCC4C3)nc21 (stereo not drawn) [Compound No. 69, 6-(2-Nitrophenyl)-2-(3-azabicyclo [3.3.0]oct-3-yl-amino)-8-methyl-pyrido[2,3-d]pyrimidin-7(8H)-one]

test system: not given; experiment: not given; conditions: not given

melting point | SMILES
69.8 to 79.8 °C | Cc1ccccc1-c1cc2cnc(NN3CC4CCCC4C3)nc2n(C)c1=O (stereo not drawn) [Compound No. 2, 6-(2-Methylphenyl)-2-(3-azabicyclo[3.3.0]oct-3-yl-amino)-8-methylpyrido[2,3-d]pyrimidin-7(8H)-one]
